The numbers were not newly measured in patent US20050031575A1, “Block copolymers” (priority 2001, published 2005), which cites them from elsewhere.

In this data set the test system is solid tumours. Conditions: micelles ranging in size from 20-60 nm that accumulate in solid tumours.

Take “poly(ethylene glycol-aspartate) block copolymer doxorubicin conjugates”: the antitumour activity entry is “exhibit antitumour activity”.
